Reference: patent publication US9974931B2, “Pharmaceutical-coated medical products, the production thereof and the use thereof” (Invatec Technology Center Gmbh, priority 2007, dated 2018)

Columns and labels:
[1] = Coating of hydrophilic and non-hydrophilic balloon catheters with paclitaxel by immersion: paclitaxel content on balloon; type: physicochemical; details: 4 immersions, 30 mg paclitaxel/ml
Protocol: Coating solution: 30 mg paclitaxel/ml in acetone 89%, ethanol 9%, Ultravist®-370 (Schering AG, Berlin) 2%, by immersing it 4 times and allowing it to dry between each immersion: […]

[2] = Loss of the active substance during expansion in the dry state (adhesion test); type: physicochemical
Text: The active substance can, for example, be released in the form of particles and can then become effective by dissolution in the course of a longer period of time; • Low molecular weight: Substances with a molecular weight less than 5000 Da, and preferably <2000 Da, and particularly preferred <1000 Da; • Hydrophilic/hydrophilised balloon membrane: hydrophilic membranes consisting of materials which can be wetted with water or with hydrophilic solvents; hydrophilised membranes are membranes made out nylon, for example, whose surfaces were changed by subsequent treatment into a state that can be wetted with water or other hydrophilic solvents. • Hydrophilic or hydrophilised membranes are not to be confused with membranes which are provided with an additional hydrophilic layer; • Hydrophilically-coated balloon membrane: A membrane, which contains an additionally applied layer, which can itself be wetted with water; • Open on the surface: Pharmaceuticals or additives which are not incorporated into the balloon membrane or which are not incorporated into any layers that are firmly attached to the balloon membrane. For example, they are not incorporated in any polymeric water-insoluble coatings particularly any hydrogels that may not become detached. […] The balloons are expanded when dry and shaken for 5 seconds in a glass vessel. More than 75% of the dose remains on the balloon; • Highly volatile: Solvents with a boiling point below 300° C., and preferably below 160° C., with below 100° C. being particularly preferred.
Each balloon was coated in the folded state with 3 to 4 μg/mm^2 paclitaxel and was tested for loss of the active substance during expansion in the dry state as defined under ‘Definitions’.

[3] = Coating of balloon catheters with methotrexate: content of active substance; type: physicochemical; details: balloons 3.5 to 19 mm; 2×16 μl coating plus additional coat with Ultravist-370 + HES + methotrexate
Protocol: 30 mg methotrexic acid+100 μl sodium bicarbonate (7.5%)+900 μl methanol (coating with 2×16 μl, corresponding to ˜4 μg/mm^2 balloon surface)
Additional coat: Ultravist®-370+hydroxyethyl starch (HES) 10% (1:1 by volume)+30 mg methotrexate/ml applied by immersing for a short time
Stents: stainless steel, balloon-expandable 3.5 to 18 mm
Content of active substance: 5.3 μg/mm^2 balloon surface

[4] = test system: overstretched coronary arteries in pigs; test: Efficacy and tolerance of coated balloon catheters with stent implantation, quantitative angiography after 4 weeks; type: in vivo; details: pig coronary artery, n = 8; for Late lumen loss: within 4 weeks
Text: The efficacy and tolerance of coated balloon catheters according to example 5 in overstretched coronary arteries in pigs
Method: Scheller B, Speck U, Abramjuk C, Bernhardt U, Böhm M, Nickenig G: Paclitaxel balloon coating—a novel method for prevention and therapy of restenosis. Circulation 2004; 110: 810-4
Stents were implanted into pigs with the help of methotrexate coated or uncoated (control) balloon catheters. After 4 weeks the extent of the constriction of the lumen in the area of the stent was measured using quantitative angiography.
The late lumen loss means the amount by which the original coronary artery lumen diameter decreases due to excessive cell growth within 4 weeks. With blood flowing through them the original coronary artery lumen diameters were 2.64 mm and 2.41 mm respectively. In the control group (no methotrexate) the late lumen loss was 1.1 mm and in the group treated with methotrexate the late lumen loss was 0.67 mm.

μg paclitaxel/mm^2 balloon surface ([1]; hydrophilic catheter, 3.5 to 15 mm, 5 balloon catheters)	μg paclitaxel/mm^2 balloon surface ([1]; hydrophilic catheter, 3.5 to 20 mm, 8 balloon catheters)	μg paclitaxel/mm^2 balloon surface ([1]; standard catheter, 3.5 to 15 mm, 5 balloon catheters)	μg paclitaxel/mm^2 balloon surface ([1]; standard catheter, 3.5 to 20 mm, 8 balloon catheters)	loss of the active substance during expansion in the dry state ([2]; series 1, coating solvent Acetic acid)	loss of the active substance during expansion in the dry state ([2]; series 1, coating solvent Acetone, 3 to 4 μg/mm^2, folded)	loss of the active substance during expansion in the dry state ([2]; series 1, coating solvent Dimethylformamide)	loss of the active substance during expansion in the dry state ([2]; series 1, coating solvent Dimethylsulfoxide)	loss of the active substance during expansion in the dry state ([2]; series 1, coating solvent Dioxane)	loss of the active substance during expansion in the dry state ([2]; series 1, coating solvent Isopropanol)	loss of the active substance during expansion in the dry state ([2]; series 1, coating solvent Tetrahydrofuran)	loss of the active substance during expansion in the dry state ([2]; series 2, Tetrahydrofuran with 10% water by volume)	loss of the active substance during expansion in the dry state ([2]; series 2, Tetrahydrofuran with 20% water by volume)	loss of the active substance during expansion in the dry state ([2]; series 2, Tetrahydrofuran with 37% water by volume)	loss of the active substance during expansion in the dry state ([2]; series 2, coating solvent Tetrahydrofuran)	Content of active substance [3]	Structure (SMILES)	Minimum vessel diameter 28d ([4]; 28 d)	Late lumen loss [4]	Late lumen loss ([4]; listed as methotrexate)
2.8 μg/mm^2	5.6 μg/mm^2	3.4 μg/mm^2	5.0 μg/mm^2	4%	21%	24%	66%	12%	19%	4%	3%	16%	37%	3%	–	CC(=O)O[C@H]1C(=O)[C@@]2(C)[C@H]([C@H](OC(=O)c3ccccc3)[C@]3(O)C[C@H](OC(=O)[C@H](O)[C@@H](NC(=O)c4ccccc4)c4ccccc4)C(C)=C1C3(C)C)[C@]1(OC(C)=O)CO[C@@H]1C[C@@H]2O [paclitaxel]	–	–	–
–	–	–	–	–	–	–	–	–	–	–	–	–	–	–	5.3 μg/mm^2 balloon surface	CN(Cc1cnc2nc(N)nc(N)c2n1)c1ccc(C(=O)N[C@@H](CCC(=O)O)C(=O)O)cc1 [Methotrexate, methotrexate]	1.74 ± 0.41 mm	0.67 ± 0.39 mm	0.67 mm
